According to US20150065709A1, “Aminoquinazoline Derivative And Use Thereof In Preparing Anti-Malignant Tumor Medicament” (METABOMICS, INC, priority 2012, published 2015):

Assays:
[1] = system: H1975 human non-small cell lung cancer tumor cells; test: Transplanted tumor in nude mice, initial H1975 test; assay type: in vivo, nude mice (BALB/c)
Experimental: H1975 human non-small cell lung cancer tumor cells were inoculated into 18 nude mice (BALB/c, male, 5-6 weeks of age), and when the mean tumor volume reaches 150 mm^3 the nude mice were randomized into three groups, including: control group (5 nude mice), 20 mg compound Ie/kg/day dose group (8 nude mice) and 75 mg Gefitinib/kg/day (5 nude mice). Test compounds were continuously administrated orally for 21 days. Tumor size and body weight of nude mice were recorded twice weekly from the first day of administration. […] was calculated using the formula (1×w^2), wherein 1 and w respectively represents the maximum and minimum size in each measurement. The change relation of mean tumor volume with the days after tumor transplantation was graphed according to the calculation results.

HER2 = HER2 (Homo sapiens, UniProt P04626); test: Caliper Mobility Shift Assay, inhibition of HER2 kinase activity; assay type: biochemical
[2] = Long-term toxicity experiment (28 days) in dogs; assay type: in vivo
Experimental: Experiment Animals: rats, male, 6-8 weeks of age, body weight: 180-250 g; dogs, male, about 24 months, body weight: 7-10 kg.
Preparation of sample: in rat's experiments the mixed formulation powder of the compound Ie was formulated into 0.1, 0.3 and 1 mg/mL homogeneous suspension for use; administration route: oral administration; […]. In dog's experiments the tablets of compound Ie were fed to dogs. […].
Sample collection: blood was collected at the time points of 1, 10, 20 and 28 days respectively, about 120-200 μL whole blood was collected from 3 animals at each time point. Blood was collected at 1 h, 4 h, 8 h and 24 h after administration.
Sample analysis: the collected samples were detected by LC-MS/MS, and the instrument model was SHIMADZU20 A-API4000.
Pharmacokinetic data analysis: the obtained plasma concentration data were fitted and calculated using WinNolin according to non-compartment model.

HCC827 = test: Inhibition of tumor cells, MTS method; assay type: cell-based; conditions: Homo sapiens, 72 hours
Experimental: (§1) (1) Compounds: in vitro studies the test compounds was dissolved in 100% DMSO and diluted until the final concentration of DMSO was 0.1%. The 0.1% (v/v) DMSO was added into culture medium as solvent control. 9 concentration gradients were tested and each gradient was repeated twice. (2) Tumor cell lines: the tumor cell lines were cultivated in RPMI10 culture medium containing 10% fetal calf serum in incubator at 37° C. in a 5% CO2 air incubator. The tested tumor cell lines were: BT474, MDA-MB-231, SK-Br-3, A431, H292, H1975, HCC827, A549, H1650 and H1734. (3) MTS method: cells were seeded into 96-well plate to give a density of about 3000 cells per well, and incubated overnight in a humidified incubator at 37° C. In the next day, the test compounds were added to the wells and further incubated for 72 hours. The cell activity was detected using MTS. IC50 was calculated (the concentration of a compound that is required for 50% inhibition of the cell growth versus the DMSO control group, using nonlinear regression analysis of software GraphPad Prism). […] In a 96-well plate, each test compound was tested at 9 dosage concentrations and each dosage was made in triplicate. Samples were added in 100 μL/well. Cell control and negative control wells contained diluents instead of compounds. Except the negative control well, 100 μL cell suspension of complete medium was added into each test well, wherein corresponding cell numbers were included to assure that the cells in cell control well just cover the bottom of the well as the required incubation time was reached. The plate was incubated in a CO2 incubator at 37° C. for 48 hours. The liquid in test wells was removed by pipetting. 100 μL CCK-8 (Cell counting Kit-8, purchased from DOJINDO Molecular Technologies) detection liquid (containing 10% CCK-8, 5% FBS corresponding medium) was added into each test well, then the plate was incubated in a CO2 incubator under at 37° C. for 3 hours. OD value was detected by ELIASA at A450 nm. Cell viability percentage (%)=(O.D. test compound-O.D. blank)/(O.D. control-O.D. blank)×100. Mean value was calculated for each 3 repeated wells, and IC50 was calculated using nonlinear regression (fitted curve) data analysis method.

H1650 = test: Inhibition of tumor cells, MTS method; assay type: cell-based; conditions: Homo sapiens, NCI-H1650, 72 hours
Experimental: as §1

BT474 = test: Inhibition of tumor cells, MTS method; assay type: cell-based; conditions: Homo sapiens, BT-474, 72 hours
Experimental: as §1

A431 = test: Inhibition of tumor cells, MTS method; assay type: cell-based; conditions: Homo sapiens, A-431, 72 hours
Experimental: as §1

H1734 = test: Inhibition of tumor cells, MTS method; assay type: cell-based; conditions: Homo sapiens, NCI-H1734, 72 hours
Experimental: as §1

A549 = test: Inhibition of tumor cells, MTS method; assay type: cell-based; conditions: Homo sapiens, 72 hours
Experimental: as §1

SK-Br-3 = test: Inhibition of tumor cells, MTS method; assay type: cell-based; conditions: Homo sapiens, 72 hours
Experimental: as §1

H292 = test: Inhibition of tumor cells, MTS method; assay type: cell-based; conditions: Homo sapiens, NCI-H292, 72 hours
Experimental: as §1

H1975 = test: Inhibition of tumor cells, MTS method; assay type: cell-based; conditions: Homo sapiens, NCI-H1975, 72 hours
Experimental: as §1

HER2, sequence (P04626 23-1255): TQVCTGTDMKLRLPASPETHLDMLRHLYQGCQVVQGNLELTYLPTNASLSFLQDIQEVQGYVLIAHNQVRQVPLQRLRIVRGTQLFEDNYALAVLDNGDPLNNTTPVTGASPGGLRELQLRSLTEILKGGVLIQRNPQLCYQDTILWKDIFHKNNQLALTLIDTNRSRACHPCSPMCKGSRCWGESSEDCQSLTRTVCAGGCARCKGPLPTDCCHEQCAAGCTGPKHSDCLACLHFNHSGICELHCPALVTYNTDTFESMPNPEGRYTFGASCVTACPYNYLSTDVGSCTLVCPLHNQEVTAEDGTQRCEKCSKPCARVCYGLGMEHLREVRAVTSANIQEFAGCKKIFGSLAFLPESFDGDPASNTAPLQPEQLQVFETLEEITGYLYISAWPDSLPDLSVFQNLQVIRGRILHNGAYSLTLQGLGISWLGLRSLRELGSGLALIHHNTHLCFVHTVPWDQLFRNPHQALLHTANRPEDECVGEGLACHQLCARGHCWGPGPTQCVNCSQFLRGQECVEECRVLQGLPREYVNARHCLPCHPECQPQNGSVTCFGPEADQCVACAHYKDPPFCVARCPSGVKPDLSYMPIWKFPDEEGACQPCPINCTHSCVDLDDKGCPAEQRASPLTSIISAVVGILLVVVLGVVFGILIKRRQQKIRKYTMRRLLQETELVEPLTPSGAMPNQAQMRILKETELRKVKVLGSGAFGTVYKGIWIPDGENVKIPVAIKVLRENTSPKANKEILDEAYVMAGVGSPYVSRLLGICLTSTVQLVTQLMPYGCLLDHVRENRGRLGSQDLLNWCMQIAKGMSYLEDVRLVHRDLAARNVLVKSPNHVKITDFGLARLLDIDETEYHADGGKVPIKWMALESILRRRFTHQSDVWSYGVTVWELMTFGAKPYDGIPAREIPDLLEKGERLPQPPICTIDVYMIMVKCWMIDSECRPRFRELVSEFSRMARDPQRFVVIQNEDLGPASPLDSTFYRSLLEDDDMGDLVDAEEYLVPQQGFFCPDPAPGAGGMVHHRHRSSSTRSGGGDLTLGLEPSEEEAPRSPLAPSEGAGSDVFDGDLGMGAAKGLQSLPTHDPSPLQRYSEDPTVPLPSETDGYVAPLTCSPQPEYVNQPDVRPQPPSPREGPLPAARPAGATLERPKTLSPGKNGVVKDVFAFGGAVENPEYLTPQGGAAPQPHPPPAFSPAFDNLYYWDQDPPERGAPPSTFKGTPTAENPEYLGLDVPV

CN(C)C/C=C/C(=O)Nc1cc2c(Nc3ccc(F)c(Cl)c3)ncnc2cc1OC(F)F [Compound Ie]
T/C % ([1]; H1975 tumor model, 20 mg compound Ie/kg/day orally for 21 days): 59% | therapeutic effect on H1975 tumor model ([1]; compound Ie 20 mg/kg/day, Gefitinib 75 mg/kg/day, orally for 21 days): good therapeutic effect | IC50 (HER2): 11.7 nM | toxicity reaction ([2]; dog, in vivo, 1 mg/kg): No toxicity reaction | toxicity reaction ([2]; dogs, 5 mg/kg, 28 days, reaction of Afatinib group greater than compound Ie group): toxicity reactions | IC50 (HCC827): 0.002 µM | IC50 (H1650): 3.24 µM | IC50 (BT474): 0.034 µM | IC50 (A431): 0.652 µM | IC50 (H1734): 0.539 µM | IC50 (A549): 3.72 µM | IC50 (SK-Br-3): 0.23 µM | IC50 (H292): 2.65 µM | IC50 (H1975): 0.8 µM
